In ChEMBL document CHEMBL5335775, “Bioisosteric replacement of 1H-1,2,3-triazole with 1H-tetrazole ring enhances anti-leukemic activity of (5-benzylthiazol-2-yl)benzamides” (Eur J Med Chem, 2023):

How the values were obtained:
[1] = Antiproliferative activity against J774.2 cells assessed as inhibition of cell proliferation measured after 72 hrs by MTT assay; type: toxicity, cell-based; settings: mouse
[2] = Antiproliferative activity against human HaCaT cells assessed as inhibition of cell proliferation measured after 72 hrs by MTT assay; type: toxicity, cell-based
[3] = Antiproliferative activity against NIH3T3 cells assessed as inhibition of cell proliferation measured after 72 hrs by MTT assay; type: toxicity, cell-based; settings: mouse
[4] = tested on: K562; assay: Antiproliferative activity against human K562 cells assessed as inhibition of cell proliferation measured after 72 hrs by MTT assay; type: functional, cell-based; settings: K562, 72 h
[5] = Selectivity index, ratio of IC50 for […] to IC50 for human K562 cells; type: functional
[6] = Selectivity index, ratio of IC50 for human HaCaT cells to IC50 for human K562 cells; type: toxicity; settings: HaCaT cells and K562 cells, read-out: Ratio IC50
[7] = tested on: NCI-H460; assay: Anticancer activity against human NCI-H460 cells assessed as cell growth at 10^-5 M incubated for 48 hrs by SRB assay relative to control; type: functional; settings: NCI-H460, 48 h, dose 1 10^-5M, read-out: Activity
[8] = tested on: MCF7; assay: Anticancer activity against human MCF7 cells assessed as cell growth at 10^-5 M incubated for 48 hrs by SRB assay relative to control; type: functional; settings: MCF7, 48 h, dose 1 10^-5M, read-out: Activity
[9] = tested on: ACHN; assay: Anticancer activity against human ACHN cells assessed as cell growth at 10^-5 M incubated for 48 hrs by SRB assay relative to control; type: functional; settings: dose 1 10^-5M, read-out: Activity
[10] = tested on: SK-MEL-5; assay: Anticancer activity against human SK-MEL-5 cells assessed as cell growth at 10^-5 M incubated for 48 hrs by SRB assay relative to control; type: functional; settings: SK-MEL-5, 48 h, dose 1 10^-5M, read-out: Activity
[11] = tested on: UACC-62; assay: Anticancer activity against human UACC-62 cells assessed as cell growth at 10^-5 M incubated for 48 hrs by SRB assay relative to control; type: functional; settings: UACC-62, 48 h, dose 1 10^-5M, read-out: Activity
[12] = tested on: K562; assay: Anticancer activity against human K562 cells assessed as cell growth at 10^-5 M incubated for 48 hrs by SRB assay relative to control; type: functional; settings: K562, 48 h, dose 1 10^-5M, read-out: Activity
[13] = tested on: NCI/ADR-RES; assay: Anticancer activity against human NCI/ADR-RES cells assessed as cell growth at 10^-5 M incubated for 48 hrs by SRB assay relative to control; type: functional; settings: dose 1 10^-5M, read-out: Activity
[14] = tested on: KM12; assay: Anticancer activity against human KM12 cells assessed as cell growth at 10^-5 M incubated for 48 hrs by SRB assay relative to control; type: functional; settings: KM12, 48 h, dose 1 10^-5M, read-out: Activity
[15] = tested on: MDA-MB-435; assay: Anticancer activity against human MDA-MB-435 cells assessed as cell growth at 10^-5 M incubated for 48 hrs by SRB assay relative to control; type: functional; settings: MDA-MB-435, 48 h, dose 1 10^-5M, read-out: Activity
[16] = tested on: MOLT-4; assay: Anticancer activity against human MOLT-4 cells assessed as cell growth at 10^-5 M incubated for 48 hrs by SRB assay relative to control; type: functional; settings: MOLT-4, 48 h, dose 1 10^-5M, read-out: Activity
[17] = tested on: HCT-15; assay: Anticancer activity against human HCT-15 cells assessed as cell growth at 10^-5 M incubated for 48 hrs by SRB assay relative to control; type: functional; settings: HCT-15, 48 h, dose 1 10^-5M, read-out: Activity
[18] = tested on: A549; assay: Anticancer activity against human A549 cells assessed as cell growth at 10^-5 M incubated for 48 hrs by SRB assay relative to control; type: functional; settings: A549, 48 h, dose 1 10^-5M, read-out: Activity
[19] = tested on: MDA-MB-468; assay: Anticancer activity against human MDA-MB-468 cells assessed as cell growth at 10^-5 M incubated for 48 hrs by SRB assay relative to control; type: functional; settings: MDA-MB-468, 48 h, dose 1 10^-5M, read-out: Activity
[20] = tested on: SF-295; assay: Anticancer activity against human SF-295 cells assessed as cell growth at 10^-5 M incubated for 48 hrs by SRB assay relative to control; type: functional; settings: SF-295, 48 h, dose 1 10^-5M, read-out: Activity
[21] = tested on: OVCAR-4; assay: Anticancer activity against human OVCAR-4 cells assessed as cell growth at 10^-5 M incubated for 48 hrs by SRB assay relative to control; type: functional; settings: OVCAR-4, 48 h, dose 1 10^-5M, read-out: Activity
[22] = tested on: CAKI-1; assay: Anticancer activity against human CAKI-1 cells assessed as cell growth at 10^-5 M incubated for 48 hrs by SRB assay relative to control; type: functional; settings: CAKI-1, 48 h, dose 1 10^-5M, read-out: Activity
[23] = tested on: LOX IMVI; assay: Anticancer activity against human LOX IMVI cells assessed as cell growth at 10^-5 M incubated for 48 hrs by SRB assay relative to control; type: functional; settings: dose 1 10^-5M, read-out: Activity
[24] = tested on: M14; assay: Anticancer activity against human M14 cells assessed as cell growth at 10^-5 M incubated for 48 hrs by SRB assay relative to control; type: functional; settings: M14, 48 h, dose 1 10^-5M, read-out: Activity
[25] = tested on: HeLa; assay: Antiproliferative activity against human HeLa cells assessed as inhibition of cell proliferation measured after 48 hrs by MTT assay; type: functional, cell-based

Work on `O=C(/C=C/c1ccc(-n2cnnn2)cc1)Nc1ncc(Cc2ccccc2)s1` yielded an IC50 at 72 h [1] of 37.2 µM, an IC50 at 72 h [2] of 50.4 µM and an IC50 at 72 h [3] greater than 100 µM. The IC50 [4] was 1.05 µM and the “Ratio IC50” value [5] was 35.5.
With `O=C(Nc1ncc(Cc2ccccc2)s1)c1ccc(-n2cnnn2)cc1` the selectivity ratio [6] was 4, the IC50 at 72 h [1] was 48.1 µM and the IC50 at 72 h [2] was 33 µM. It also gave an IC50 at 72 h [3] greater than 100 µM and an IC50 [4] of 8.3 µM.
`O=C(Nc1ncc(Cc2cccc(C(F)(F)F)c2)s1)c1ccc(-n2cnnn2)cc1` gave a growth at 10 µM [7] of 30.5%, a growth at 10 µM [8] of 28.7% and a growth at 10 µM [9] of 32%. It also gave a growth at 10 µM [10] of 37.8%, a growth at 10 µM [11] of 19.8% and a growth at 10 µM [12] of 21%. For the same compound, the growth at 10 µM [13] was 35.9%, the IC50 at 72 h [1] was 43.2 µM and the growth at 10 µM [14] was 28.8%. For the same compound, the growth at 10 µM [15] was 24%, the growth at 10 µM [16] was 39.4% and the growth at 10 µM [17] was 38.7%. It also gave an IC50 at 72 h [2] greater than 100 µM, a growth at 10 µM [18] of 34.4% and an IC50 at 72 h [3] greater than 100 µM. For the same compound, the IC50 [4] was 23.7 µM, the “Ratio IC50” value [5] was 1.8 and the growth at 10 µM [19] was 16.7%. It also gave a growth at 10 µM [20] of 32.2%, a growth at 10 µM [21] of 33.6% and a growth at 10 µM [22] of 30.1%.
With `Cc1cccc(Cc2cnc(NC(=O)c3ccc(-n4cnnn4)cc3)s2)c1` the growth at 10 µM [7] was 25.8%, the growth at 10 µM [8] was 30.5% and the growth at 10 µM [9] was 30.7%. The growth at 10 µM [11] was 12%, the growth at 10 µM [12] was 19.2% and the growth at 10 µM [23] was 30.1%. For the same compound, the IC50 at 72 h [1] was 43.2 µM, the growth at 10 µM [14] was 30.2% and the growth at 10 µM [15] was 27.7%. It also gave a growth at 10 µM [17] of 34.6%, an IC50 at 72 h [2] greater than 100 µM and an IC50 at 72 h [3] greater than 100 µM. For the same compound, the growth at 10 µM [24] was 33.8%, the IC50 [4] was 20.1 µM and the “Ratio IC50” value [5] was 2.1. The growth at 10 µM [19] was 34.2% and the growth at 10 µM [22] was 35.2%.
With `CC(C)(C)c1nc(NC(=O)CN2CCN(c3ccc(O)cc3)CC2)sc1Cc1ccc(Cl)cc1` the IC50 [25] was 1.6 µM.
